Test system: YFP-FRT cells
Assay: YFP fluorescence plate reader assay of anion transport in YFP-FRT cells
Format: cell-based, Fischer rat
Conditions: for Corrected absolute initial slope |dF/dT|: transporter 50 μM, DMSO 0.5% v/v, DMSO-only subtracted, I^– 100 mM; for anion transport activity in YFP-FRT cells (in words): 50 μM
Procedure: We treated YFP-FRT cells with anionophores (final concentration, 1–50 μM) or the vehicle DMSO (0.1–0.5% v/v) by direct addition to the phosphate-buffered saline (PBS) bathing the cells. After incubating YFP-FRT cells with anionophores for 10 minutes at 37 °C, we evaluated anion transport activity by adding I^– (100 mM), using a PBS iodide solution with Cl^– replaced by I^–, and following cell fluorescence for 14 s. FRT cells are relatively impermeable to anions because they lack key ion channels found in epithelial cells, including CFTR.[33] Thus, in the absence of anionophore, iodide cannot enter YFP-FRT cells and no quenching of fluorescence occurs. By contrast, in the presence of an anionophore, iodide influx occurs leading to fluorescence quenching.[29]
To quantify anion transport by different anionophores, we fitted first order exponential functions to the iodide-induced fluorescence decay to measure the initial slope, averaging values over multiple experiments. Fig. 2b and Table 1 summarise the data. Consistent with our previous results,[29] we observed a wide range of anion transport activity. […] We therefore selected for further study 11, 12, 15 and 19.
FRT cells stably expressing the halide sensor YFP-H148Q/I152L6 were generous gifts of AS Verkman (University of California, San Francisco), while CFBE41o- cells7 stably expressing YFP (YFP-CFBE cells) were a generous gift of LJV Galietta (Telethon Institute for […]
Genetics and Medicine). […]
U ml-1 penicillin and […] streptomycin. All cells were incubated at 37 °C in a humidified atmosphere with 5% CO2. […]
Fluorescence plate reader assay […]
quenching of YFP fluorescence at 37 °C using a microplate reader following the method of Galietta et al..9 The microplate reader (model: FLUORstar Omega; BMG LABTECH Ltd., Aylesbury, UK) was equipped with a syringe pump and excitation (500 ± 10 nm) and emission (535 ± 15 nm) filters (Chroma Technology GmbH, Olching, Germany). After washing cells twice with PBS (composition (mM): 137 NaCl, 2.7 KCl, 8.1 Na2HPO4, 1.5 KH2PO4, 1 CaCl2 and 0.5 MgCl2, pH 7.40), cells were incubated with test anionophores (1 – 50 µM) or the vehicle (DMSO [0.1 – 0.5% v v-1]) in 40 µl of PBS for 10 – 120 minutes according to the experimental design. Other compounds, including forskolin, ivacaftor and channel inhibitors were added to […]
the PBS bathing cells 10 minutes prior to PBS iodide addition, whereas UTP was added to cells with the PBS iodide solution. Fluorescence was measured for 14 seconds; 2 seconds before and 12 seconds after injection of 110 µl PBS iodide solution (137 mM Cl- replaced by I-) into each well (to obtain a final concentration of I- of 100 mM).
We expressed cell fluorescence values (F) relative to the fluorescence value immediately before I- injection (F0), excluding the initial decrease, which likely represents the quenching of extracellular YFP released from cells and signal reduction accompanying the increase in solution volume bathing cells. To quantify anion transport by test anionophores, we determined the initial slope of the fluorescence decay following I - addition by fitting first order exponential functions to the last 12 seconds of each fluorescence recording. In each experim ent, n values represent the mean of two replicates and all treatments were tested at least three times using different microplates. […]
FRT cells was selected and the cells were perfused with (i) PBS for 5 minutes then (ii) PBS containing I- (10 mM) (made by preparing PBS with 127 mM NaCl to maintain osmolarity) for 5 minutes and finally (iii) PBS for 30 minutes to remove thoroughly I- from the perfusion chamber. YFP-FRT cells were repeatedly treated with I- (10 mM) and then washed with PBS […]
During all interventions, the rate of solution perfusion was 8 – 10 ml min-1; temperature was 37 °C and except for the first

Structure (SMILES)	Corrected absolute initial slope |dF/dT|	anion transport activity in YFP-FRT cells (in words)
COCCOCCOC(=O)[C@]12CC[C@@H](NC(=O)Nc3ccc(C(F)(F)F)cc3)C[C@@H]1C[C@@H](NC(=O)Nc1ccc(C(F)(F)F)cc1)CC2 [Compound 9]	1.1 ×10^–3 s^–1	–
COCCOCCOC(=O)[C@]12CC[C@@H](NC(=O)Nc3cc(C(F)(F)F)cc(C(F)(F)F)c3)C[C@@H]1C[C@@H](NC(=O)Nc1cc(C(F)(F)F)cc(C(F)(F)F)c1)CC2 [Compound 10]	0.7 ×10^–3 s^–1	–
CCOC(=O)[C@]12CC[C@@H](NC(=S)Nc3ccc([N+](=O)[O-])cc3)C[C@@H]1C[C@@H](NC(=S)Nc1ccc([N+](=O)[O-])cc1)CC2 [Compound 12]	17.2 ×10^–3 s^–1	notable decays in fluorescence
CCCCCCCCOC(=O)[C@]12CC[C@@H](NC(=S)Nc3ccc([N+](=O)[O-])cc3)C[C@@H]1C[C@@H](NC(=S)Nc1ccc([N+](=O)[O-])cc1)CC2 [Compound 13]	3.3 ×10^–3 s^–1	intermediate levels
CCOC(=O)[C@]12CC[C@@H](NC(=S)Nc3cc(C(F)(F)F)cc(C(F)(F)F)c3)C[C@@H]1C[C@@H](NC(=S)Nc1cc(C(F)(F)F)cc(C(F)(F)F)c1)CC2 [Compound 15]	22.6 ×10^–3 s^–1	notable decays in fluorescence
FC(F)(F)c1ccc(NC(=S)NCCN(CCNC(=S)Nc2ccc(C(F)(F)F)cc2)CCNC(=S)Nc2ccc(C(F)(F)F)cc2)cc1 [Compound 18]	1.1 ×10^–3 s^–1	–
FC(F)(F)c1cc(NC(=S)NCCN(CCNC(=S)Nc2cc(C(F)(F)F)cc(C(F)(F)F)c2)CCNC(=S)Nc2cc(C(F)(F)F)cc(C(F)(F)F)c2)cc(C(F)(F)F)c1 [Compound 19]	12.2 ×10^–3 s^–1	notable decays in fluorescence

Source: PMC6984391, “Anion carriers as potential treatments for cystic fibrosis: transport in cystic fibrosis cells, and additivity to channel-targeting drugs” (Chemical Science, 2019)
